Where “and” joins values, the source holds several entries; their conditions need not be identical. Identical values can stand only once.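 Results reflect a 48-hour exposure of cells in 96-well plates to compound at five concentrations. Abbreviation: GI50, concentration required for 50% inhibition of growth. TGI marks complete inhibition of growth.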 A value given as a limit tells only on which side of the number the result lay.

This is an account of results in PubChem BioAssay (NCI).

Among the test systems are U251 CNS; M14 melanoma; DU-145 prostate; NCI-H460 lung; COLO 205 colon; SF-539 CNS; SF-268 CNS; MDA-MB-435; A549 NSCLC; NCI-H522 lung.
Assay in all cases: NCI anticancer screen, dose series, 48 h

Regarding `O=C1CCc2c(sc3[nH]c(=S)n(Cc4ccccc4)c(=O)c23)C1`, the GI50 in the test on U251 CNS was 2.14 µM; with M14 melanoma, 3.75 µM; in the test on DU-145 prostate, 5.06 µM; in the test on NCI-H460 lung, 3.64 µM; in the test with COLO 205 colon, 2.36 µM; in the test on SF-539 CNS, 2.15 µM. Moreover, the GI50 in the test with SF-268 CNS is 3.55 µM; with MDA-MB-435 it was 3.43 µM; with A549 NSCLC, 3.29 µM; in the test with NCI-H522 lung it was 0.852 µM. Moreover, the TGI in the test with U251 CNS was greater than 100 µM; in the test on M14 melanoma it was greater than 100 µM; in the test with DU-145 prostate, greater than 100 µM; with NCI-H460 lung, greater than 100 µM; in the test on COLO 205 colon, 4.99 µM; in the test with SF-539 CNS it was 5.61 µM. Besides, the TGI with SF-268 CNS is greater than 100 µM; in the test with MDA-MB-435, greater than 100 µM; with A549 NSCLC, greater than 100 µM; in the test with NCI-H522 lung it was 5.05 µM.

Take `C[C@H]1C(Oc2ccc(O)cc2)OC2OC3(C)CCC4[C@H](C)CCC1C24OO3` (some centres undefined): the GI50 in the test on U251 CNS was 11 µM; in the test with M14 melanoma, 16.1 µM; with DU-145 prostate, 20.1 µM; in the test with NCI-H460 lung, 15.1 µM; with COLO 205 colon, 0.867 µM; with SF-539 CNS, 16.3 µM. The GI50 is 12.9 µM with SF-268 CNS, 12.4 µM in the test with MDA-MB-435, 12.2 µM with A549 NSCLC and 11 µM with NCI-H522 lung. The TGI in the test on U251 CNS is 25.8 µM; with M14 melanoma it was 34.3 µM; with DU-145 prostate, 43.2 µM; in the test on NCI-H460 lung it was 30.5 µM; with COLO 205 colon, 13.7 µM; in the test on SF-539 CNS, 33 µM. For the same compound, the TGI worked out at 27.2 µM in the test on SF-268 CNS, 46.3 µM in the test on MDA-MB-435, 30.6 µM in the test with A549 NSCLC and 25.3 µM in the test with NCI-H522 lung.

As for `COc1cccc2[nH]c(-c3ccccn3)nc12`, the TGI in the test on U251 CNS, in the test on M14 melanoma, in the test on DU-145 prostate, with NCI-H460 lung, with COLO 205 colon and in the test on SF-539 CNS was greater than 100 µM each time. In addition, the TGI with SF-268 CNS, in the test with MDA-MB-435, in the test with A549 NSCLC and in the test on NCI-H522 lung was greater than 100 µM each time.

Turning to `O=C1c2c(O)cc(O)cc2OC(c2ccc(O)cc2O)C1O` (centres undefined), the GI50 with U251 CNS, with COLO 205 colon, in the test on SF-539 CNS, in the test on SF-268 CNS and in the test with NCI-H522 lung was greater than 100 µM in each case. Moreover, the TGI in the test with U251 CNS, in the test on M14 melanoma, with DU-145 prostate, in the test on NCI-H460 lung, in the test with COLO 205 colon and in the test on SF-539 CNS was greater than 100 µM throughout. For the same compound, the TGI with SF-268 CNS, with MDA-MB-435, in the test with A549 NSCLC and with NCI-H522 lung was greater than 100 µM each time.

`COc1ccc(C(=O)COc2cccc(/C=C3\CSc4ccc(C)cc4C3=O)c2)cc1`: the GI50 was 7.38 µM in the test on U251 CNS; 23.6 µM with M14 melanoma; 64.5 µM in the test on DU-145 prostate; greater than 100 µM with NCI-H460 lung; 31.8 µM in the test on COLO 205 colon; greater than 100 µM in the test with SF-539 CNS. Further, the GI50 in the test on SF-268 CNS is 19.3 µM; with MDA-MB-435, 3.59 µM; in the test with A549 NSCLC it was greater than 100 µM; with NCI-H522 lung, 3.62 µM. Besides, the TGI in the test on U251 CNS, in the test with M14 melanoma, in the test with DU-145 prostate, with NCI-H460 lung, in the test with COLO 205 colon and in the test with SF-539 CNS was greater than 100 µM throughout. In addition, the TGI in the test on SF-268 CNS is 72.9 µM; in the test on MDA-MB-435 it was 83.9 µM; in the test with A549 NSCLC, greater than 100 µM; with NCI-H522 lung it was 37.2 µM.

`Nc1c(C(=O)Nc2ccccc2F)sc2nc3c(cc12)C(=O)CCC3`: the GI50 is 1.23 µM with U251 CNS; 0.645 µM in the test on M14 melanoma; 1.81 µM in the test on DU-145 prostate; 0.541 µM in the test on NCI-H460 lung; 0.696 µM in the test with COLO 205 colon; 0.817 µM with SF-539 CNS. Further, the GI50 with SF-268 CNS is greater than 30.6 µM; in the test on MDA-MB-435, 0.216 µM; in the test on A549 NSCLC, 0.898 µM; in the test on NCI-H522 lung it was 0.476 µM. Further, the TGI in the test on U251 CNS was greater than 100 µM; in the test on M14 melanoma it was greater than 100 µM; in the test with DU-145 prostate, greater than 28.6 µM; with NCI-H460 lung, greater than 63.1 µM; in the test on COLO 205 colon, 6.81 µM; in the test on SF-539 CNS, greater than 22.2 µM. In addition, the TGI with SF-268 CNS is greater than 100 µM; in the test with MDA-MB-435, 0.661 µM; with A549 NSCLC, greater than 100 µM; with NCI-H522 lung it was 3.9 µM.

Consider `O=C(O)c1ccc2c(c1)nc(Nc1cccc(Cl)c1)c1ccncc12`, for which the GI50 is 1.82 µM and 1.38 µM with U251 CNS; 1.52 µM and 2.2 µM in the test on M14 melanoma; 4.92 µM and 6.02 µM in the test with DU-145 prostate; 3.48 µM and 4.32 µM with NCI-H460 lung; 4.21 µM and 3.67 µM in the test with COLO 205 colon; 2.05 µM and 1.58 µM with SF-539 CNS. Moreover, the GI50 with SF-268 CNS was 3.52 µM and 3.85 µM; in the test with MDA-MB-435, 2.67 µM and 3.01 µM; in the test with A549 NSCLC it was 7.23 µM and 6.64 µM; in the test with NCI-H522 lung, 1.98 µM and 1.39 µM. The TGI was 5.39 µM and 9.68 µM in the test on M14 melanoma; 47.3 µM and > 10 µM in the test with DU-145 prostate; 25.1 µM and > 10 µM in the test with NCI-H460 lung; 15.1 µM and > 10 µM in the test on COLO 205 colon; 8.45 µM and 6.12 µM in the test with SF-539 CNS; greater than 77.4 µM with SF-268 CNS. The TGI in the test with MDA-MB-435 is greater than 31.6 µM; in the test on A549 NSCLC, 27.4 µM and > 10 µM; in the test on NCI-H522 lung, 6.42 µM and 4.51 µM.

For `Cn1c(=S)c2[nH]c(SCCN3CCCC3)nc2n(C)c1=O`, the TGI in the test with U251 CNS, with M14 melanoma, with DU-145 prostate, with NCI-H460 lung, in the test with COLO 205 colon and in the test with SF-539 CNS was greater than 100 µM in each case. Besides, the TGI with SF-268 CNS, in the test on MDA-MB-435, in the test with A549 NSCLC and in the test on NCI-H522 lung was greater than 100 µM in each case.

Regarding `CCCSC1=NC2C(N(CC)C(=O)N2CC)N1/N=C/C=C/c1ccccc1[N+](=O)[O-]` (centres undefined), the GI50 with U251 CNS was 3.42 µM; in the test on M14 melanoma, 2.83 µM; in the test with DU-145 prostate, 3.51 µM; in the test on NCI-H460 lung it was 3.45 µM; in the test with COLO 205 colon, 3.13 µM; in the test with SF-539 CNS, 2.13 µM. Also, the GI50 was 4.69 µM in the test on SF-268 CNS, 2.02 µM in the test with MDA-MB-435, 4.25 µM with A549 NSCLC and 2.12 µM in the test on NCI-H522 lung. In addition, the TGI in the test with U251 CNS was greater than 100 µM; with M14 melanoma it was 20.8 µM; with DU-145 prostate, greater than 100 µM; in the test with NCI-H460 lung, greater than 100 µM; in the test with COLO 205 colon it was 56.5 µM; in the test with SF-539 CNS it was 5.8 µM. In addition, the TGI was greater than 100 µM in the test on SF-268 CNS, 7.24 µM in the test with MDA-MB-435, greater than 100 µM in the test on A549 NSCLC and 41 µM with NCI-H522 lung.

For the compound `CCCCC#CC#Cc1cccc(=O)o1`, the GI50 with U251 CNS was 24.6 µM; with M14 melanoma it was 21.7 µM; with DU-145 prostate, 21.9 µM; in the test with NCI-H460 lung, 20.9 µM; with COLO 205 colon, 17.7 µM; in the test with SF-539 CNS, 24.6 µM. The GI50 was 41.4 µM in the test with SF-268 CNS, 22 µM with MDA-MB-435, 39.2 µM in the test on A549 NSCLC and 23.2 µM in the test on NCI-H522 lung. Also, the TGI with U251 CNS is 72.7 µM; in the test with M14 melanoma, 40.6 µM; in the test on DU-145 prostate it was 50.8 µM; in the test on NCI-H460 lung, greater than 100 µM; with COLO 205 colon it was 35 µM; in the test on SF-539 CNS it was 51.6 µM. In addition, the TGI in the test on SF-268 CNS is greater than 100 µM; in the test with MDA-MB-435 it was 48.6 µM; in the test on A549 NSCLC, greater than 100 µM; in the test with NCI-H522 lung it was 52.1 µM.
